Data published in patent publication US8106055B2, “Substituted amide compounds” (Gruenenthal GmbH, priority 2007, dated 2012).

Assays:
[1] = target: T1, serotonin (5-HT) reuptake (Rattus norvegicus, UniProt P31652); assay: Inhibition of serotonin (5HT) reuptake in synaptosomes from rat brain; format: biochemical; settings: test concentration of 10 μM; read-out: 5-HT (inhibition of reuptake of serotonin, % inhibition)
T1 construct: synaptosomes are freshly isolated from areas of the rat brain; from tissue; host or cells: rat brain synaptosomes (P2 fraction)
In short: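 Compounds screened at 10 μM and reported as percent inhibition of serotonin uptake. Uptake measured in a freshly prepared P2 synaptosomal fraction from rat brain.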

[2] = target: T2, human μ opiate receptor (Homo sapiens, UniProt P35372); assay: Affinity for the human μ opiate receptor ([3H]-naloxone displacement, CHO-K1 receptor membrane preparation, SPA); format: binding; settings: test concentration of 1 μM; read-out: μ (binding on the μ opioid receptor, % inhibition)
T2 construct: purchased PerkinElmer Life Sciences, Zaventem, Belgium RB-HOM; host or cells: CHO-K1 cells (membrane preparation)
In short: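 At 1 μmol/l, compounds were scored for % displacement of 1 nmol/l [3H]-naloxone from CHO-K1-expressed human μ opiate receptor in a homogeneous SPA format (90 min, room temperature).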

T1 sequence (P31652 whole entry): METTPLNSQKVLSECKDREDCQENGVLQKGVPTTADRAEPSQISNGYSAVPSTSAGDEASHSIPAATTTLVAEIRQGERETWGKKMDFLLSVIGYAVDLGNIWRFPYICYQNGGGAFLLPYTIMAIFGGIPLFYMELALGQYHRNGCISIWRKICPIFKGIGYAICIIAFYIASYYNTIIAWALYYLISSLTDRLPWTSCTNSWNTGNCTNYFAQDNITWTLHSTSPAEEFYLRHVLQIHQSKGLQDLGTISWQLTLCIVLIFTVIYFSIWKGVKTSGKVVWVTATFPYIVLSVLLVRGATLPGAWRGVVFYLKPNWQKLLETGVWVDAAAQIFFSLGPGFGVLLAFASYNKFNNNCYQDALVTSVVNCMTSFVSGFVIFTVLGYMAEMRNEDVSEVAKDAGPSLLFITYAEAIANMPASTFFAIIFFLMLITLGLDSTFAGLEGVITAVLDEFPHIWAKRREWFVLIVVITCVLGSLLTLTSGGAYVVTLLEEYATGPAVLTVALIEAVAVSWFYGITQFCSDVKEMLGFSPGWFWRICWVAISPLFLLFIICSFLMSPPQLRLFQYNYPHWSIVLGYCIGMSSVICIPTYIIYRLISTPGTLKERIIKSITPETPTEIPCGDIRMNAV
T2 sequence (P35372 whole entry): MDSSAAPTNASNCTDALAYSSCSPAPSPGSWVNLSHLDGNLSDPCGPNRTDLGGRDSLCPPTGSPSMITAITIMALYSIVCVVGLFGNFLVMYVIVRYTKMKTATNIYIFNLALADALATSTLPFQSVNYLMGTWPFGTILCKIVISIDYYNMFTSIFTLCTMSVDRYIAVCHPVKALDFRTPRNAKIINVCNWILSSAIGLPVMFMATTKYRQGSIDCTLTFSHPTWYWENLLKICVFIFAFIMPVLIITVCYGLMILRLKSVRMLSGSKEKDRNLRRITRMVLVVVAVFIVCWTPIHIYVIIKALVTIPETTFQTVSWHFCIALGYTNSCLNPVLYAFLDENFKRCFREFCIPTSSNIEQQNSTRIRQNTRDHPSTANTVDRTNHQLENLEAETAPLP

SMILES	inhibition at 10 µM [1] [%]	inhibition at 1 µM [2] [%]
COc1ccc(S(=O)(=O)N2CCCCC2COCC(=O)NCC2CCC(C(c3cccc(F)c3)N(C)C)CC2)cc1 (centres unmarked) [Example 179, N-((4-((dimethylamino)(3-fluorophenyl)methyl)cyclohexyl)methyl)-2-((1-(4-methoxyphenylsulfonyl)piperidin-2-yl)methoxy)acetamide]	92	85
COc1ccc(S(=O)(=O)N2CCCCC2COCC(=O)NCCC2CCC(C(c3cccc(F)c3)N(C)C)CC2)cc1 (centres unmarked) [Example 180, N-(2-(4-((dimethylamino)(3-fluorophenyl)methyl)cyclohexyl)ethyl)-2-((1-(4-methoxyphenylsulfonyl)piperidin-2-yl)methoxy)acetamide]	93	90
COc1ccc(S(=O)(=O)N2CCCC2COCC(=O)NC2CCC(C(c3ccccc3)N(C)C)CC2)cc1 (centres unmarked) [Example 182, N-(4-((dimethylamino)(phenyl)methyl)cyclohexyl)-2-((1-(4-methoxyphenylsulfonyl)pyrrolidin-2-yl)methoxy)acetamide]	85	82
COc1cc(C)c(S(=O)(=O)N(C)CCOCC(=O)NCCC2CCC(C(c3cccc(F)c3)N(C)C)CC2)c(C)c1C (centres unmarked) [Example 183, N-(2-(4-((dimethylamino)(3-fluorophenyl)methyl)cyclohexyl)ethyl)-2-(2-(4-methoxy-N,2,3,6-tetramethylphenylsulfonamido)ethoxy)acetamide]	93	83
COc1ccc(S(=O)(=O)N2CCC(OCC(=O)NCC3CCC(C(c4cccc(F)c4)N(C)C)CC3)C2)cc1OC (centres unmarked) [Example 184, 2-(1-(3,4-dimethoxyphenylsulfonyl)pyrrolidin-3-yloxy)-N-((4-((dimethylamino)(3-fluorophenyl)methyl)cyclohexyl)methyl)acetamide]	88	91
Cc1ccc(S(=O)(=O)N2CCC(OCC(=O)NCC3CCC(C(c4cccc(F)c4)N(C)C)CC3)C2)cc1 (centres unmarked) [Example 185, N-((4-((dimethylamino)(3-fluorophenyl)methyl)cyclohexyl)methyl)-2-(1-tosylpyrrolidin-3-yloxy)acetamide]	102	78
CN(C)C(c1cccc(F)c1)C1CCC(CCNC(=O)COCCN(C)S(=O)(=O)c2ccc(Cl)cc2)CC1 (centres unmarked) [Example 186, 2-(2-(4-chloro-N-methylphenylsulfonamido)ethoxy)-N-(2-(4-((dimethylamino)(3-fluorophenyl)methyl)cyclohexyl)ethyl)acetamide]	88	87
CN(C)C(c1cccc(F)c1)C1CCC(CNC(=O)COCCN(C)S(=O)(=O)c2c(Cl)cc(Cl)cc2Cl)CC1 (centres unmarked) [Example 188, N-((4-((dimethylamino)(3-fluorophenyl)methyl)cyclohexyl)methyl)-2-(2-(2,4,6-trichloro-N-methylphenylsulfonamido)ethoxy)acetamide]	98	87
COc1cc(C)c(S(=O)(=O)N2CCC(OCC(=O)NC3CCC(C(c4cccc(F)c4)N(C)C)CC3)C2)c(C)c1C (centres unmarked) [Example 189, N-(4-((dimethylamino)(3-fluorophenyl)methyl)cyclohexyl)-2-(1-(4-methoxy-2,3,6-trimethylphenylsulfonyl)pyrrolidin-3-yloxy)acetamide]	96	84
COc1ccc(S(=O)(=O)N2Cc3ccccc3CC2COCC(=O)NCCC2CCC(C(c3cccc(F)c3)N(C)C)CC2)cc1 (centres unmarked) [Example 190, N-(2-(4-((dimethylamino) (3-fluorophenyl)methyl)cyclohexyl)ethyl)-2-((2-(4-methoxyphenylsulfonyl)-1,2,3,4-tetrahydroisoquinolin-3-yl)methoxy)acetamide]	79	83
COc1ccc(S(=O)(=O)N2CCCCC2COCC(=O)NCCC2CCC(C(c3cccc(F)c3)N(C)C)CC2)cc1OC (centres unmarked) [Example 191, 2-((1-(3,4-dimethoxyphenylsulfonyl)piperidin-2-yl)methoxy)-N-(2-(4-((dimethylamino)(3-fluorophenyl)methyl)cyclohexyl)ethyl)acetamide]	89	85
CN(C)C(c1cccc(F)c1)C1CCC(CCNC(=O)COCCN(C)S(=O)(=O)c2cccc(C(F)(F)F)c2)CC1 (centres unmarked) [Example 192, N-(2-(4-((dimethylamino)(3-fluorophenyl)methyl)cyclohexyl)ethyl)-2-(2-(N-methyl-3-(trifluoromethyl)phenylsulfonamido)ethoxy)acetamide]	94	88
COc1cc(C)c(S(=O)(=O)N(CCOCC(=O)NC2CCC(C(c3ccccc3)N(C)C)CC2)Cc2ccccc2)c(C)c1C (centres unmarked) [Example 193, 2-(2-(N-benzyl-4-methoxy-2,3,6-trimethylphenylsulfonamido)ethoxy)-N-(4-((dimethylamino) (phenyl)methyl)cyclohexyl)acetamide]	92	85
CN(C)C(c1cccs1)C1CCC(NC(=O)COC2CCN(S(=O)(=O)c3ccccc3)C2)CC1 (centres unmarked) [Example 194, N-(4-((dimethylamino)(thiophen-2-yl)methyl)cyclohexyl)-2-(1-(phenylsulfonyl)pyrrolidin-3-yloxy)acetamide]	86	83
CN(C)C(c1ccccc1)C1CCC(CNC(=O)COC2CCN(S(=O)(=O)c3ccccc3)C2)CC1 (centres unmarked) [Example 195, N-((4-((dimethylamino)(phenyl)methyl)cyclohexyl)methyl)-2-(1-(phenylsulfonyl)pyrrolidin-3-yloxy)acetamide]	101	83
CN(C)C(c1cccc(F)c1)C1CCC(NC(=O)COCCN(C)S(=O)(=O)c2ccc(Cl)cc2)CC1 (centres unmarked) [Example 196, 2-(2-(4-chloro-N-methylphenylsulfonamido)ethoxy)-N-(4-((dimethylamino)(3-fluorophenyl)methyl)cyclohexyl)acetamide]	92	81
COc1cc(C)c(S(=O)(=O)N(C)CCOCC(=O)NCCC2CCC(C(c3cccc(F)c3)N(C)C)CC2)c(C)c1 (centres unmarked) [Example 197, N-(2-(4-((dimethylamino)(3-fluorophenyl)methyl)cyclohexyl)ethyl)-2-(2-(4-methoxy-N,2,6-trimethylphenylsulfonamido)ethoxy)acetamide]	85	85
COc1cc(C)c(S(=O)(=O)N2CCC(OCC(=O)NCCC3CCC(C(c4cccs4)N(C)C)CC3)C2)c(C)c1 (centres unmarked) [Example 199, N-(2-(4-((dimethylamino)(thiophen-2-yl)methyl)cyclohexyl)ethyl)-2-(1-(4-methoxy-2,6-dimethylphenylsulfonyl)pyrrolidin-3-yloxy)acetamide]	96	87
COc1cc(C)c(S(=O)(=O)N2CCN(CCOCC(=O)NCCC3CCC(C(c4cccc(F)c4)N(C)C)CC3)CC2)c(C)c1C (centres unmarked) [Example 200, N-(2-(4-((dimethylamino)(3-fluorophenyl)methyl)cyclohexyl)ethyl)-2-(2-(4-(4-methoxy-2,3,6-trimethylphenylsulfonyl)piperazin-1-yl)ethoxy)acetamide]	95	80
